In patent publication US4150023A, “Hydrosoluble rifamycins and process for their preparation” (Intreprinderea de Antibiotice Iasi, priority 1977, dated 1979):
Converted amounts (≈) assume the structure as drawn. Counter-ions that a name gives are not always drawn.

Assays:
physchem = type: physicochemical
Description: When the work is carried out as in above mentioned examples, using 2 mol of sodium ethylhexanoate versus 1 mol of rifamycin derivative, the soluble forms of other derivatives, presented in Table 1, are obtained using the specific volumes of solvent, and resulting in the products characterized by the main proprieties tabulated.

[1] = system: ill subjects treated with rifampicin; conditions: cited from earlier work

SMILES	solubility (physchem; Solubility as such) [µg/mL]	solubility (physchem; Solubility soluble form) [µg/mL]	other results
CO[C@H]1/C=C/O[C@@]2(C)Oc3c(C)c(O)c4c(O)c(c(C=NOCCBr)c(O)c4c3C2=O)NC(=O)/C(C)=C\C=C\[C@H](C)[C@H](O)[C@@H](C)[C@@H](O)[C@@H](C)[C@H](OC(C)=O)[C@@H]1C [3-(2-bromethyloximinomethyl)-rifamycin SV, reference compound]	2950 (≈ 3.48 mM)		
CCON=Cc1c2c(O)c3c(O)c(C)c4c(c3c1O)C(=O)[C@@](C)(O/C=C/[C@H](OC)[C@@H](C)[C@@H](OC(C)=O)[C@H](C)[C@H](O)[C@H](C)[C@@H](O)[C@@H](C)/C=C/C=C(/C)C(=O)N2)O4 [Example 9, 3-(ethyloximinomethyl)rifamycin SV]		> 100000	
CO[C@H]1/C=C/O[C@@]2(C)Oc3c(C)c(O)c4c(O)c(c(C=NO)c(O)c4c3C2=O)NC(=O)/C(C)=C\C=C\[C@H](C)[C@H](O)[C@@H](C)[C@@H](O)[C@@H](C)[C@H](OC(C)=O)[C@@H]1C [Example 8, 3-formylrifamycin SV oxime (K salt)]			Solubility soluble form (physchem): 25000 µg/mL
CCON=Cc1c2c(O)c3c(O)c(C)c4c(c3c1O)C(=O)[C@@](C)(O/C=C/[C@H](OC)[C@@H](C)[C@@H](OC(C)=O)[C@H](C)[C@H](O)[C@H](C)[C@@H](O)[C@@H](C)/C=C/C=C(/C)C(=O)N2)O4 [3-(ethyloximinomethyl)rifamycin SV, reference compound]	120 (≈ 0.156 mM)		
CO[C@H]1/C=C/O[C@@]2(C)Oc3c(C)c(O)c4c(O)c(c(C=NO)c(O)c4c3C2=O)NC(=O)/C(C)=C\C=C\[C@H](C)[C@H](O)[C@@H](C)[C@@H](O)[C@@H](C)[C@H](OC(C)=O)[C@@H]1C [3-formylrifamycin SV oxime, reference compound]	5500 (≈ 7.42 mM)		
CO[C@H]1/C=C/O[C@@]2(C)Oc3c(C)c(O)c4c(O)c(c(C=NNC(=O)COc5ccccc5)c(O)c4c3C2=O)NC(=O)/C(C)=C\C=C\[C@H](C)[C@H](O)[C@@H](C)[C@@H](O)[C@@H](C)[C@H](OC(C)=O)[C@@H]1C [Example 15]		128000 (≈ 146 mM)	
CO[C@H]1/C=C/O[C@@]2(C)Oc3c(C)c(O)c4c(O)c(c(C=NNC(=O)Cc5ccccc5)c(O)c4c3C2=O)NC(=O)/C(C)=C\C=C\[C@H](C)[C@H](O)[C@@H](C)[C@@H](O)[C@@H](C)[C@H](OC(C)=O)[C@@H]1C [3-(phenylacetylhydrazonomethyl)-rifamycin SV, reference compound]	4800 (≈ 5.59 mM)		
CO[C@H]1/C=C/O[C@@]2(C)Oc3c(C)c(O)c4c(O)c(c(C=NNC(=O)COc5ccccc5)c(O)c4c3C2=O)NC(=O)/C(C)=C\C=C\[C@H](C)[C@H](O)[C@@H](C)[C@@H](O)[C@@H](C)[C@H](OC(C)=O)[C@@H]1C [3-phenoxyacetylhydrazonomethyl)-rifamysin SV, reference compound]	2750 (≈ 3.15 mM)		
CO[C@H]1/C=C/O[C@@]2(C)Oc3c(C)c(O)c4c(O)c(c(C=NNC(=O)Cc5ccccc5)c(O)c4c3C2=O)NC(=O)/C(C)=C\C=C\[C@H](C)[C@H](O)[C@@H](C)[C@@H](O)[C@@H](C)[C@H](OC(C)=O)[C@@H]1C [Example 14, 3-(phenylacetylhydrazonomethyl)-rifamycin SV]		71000 (≈ 82.8 mM)	
CO[C@H]1/C=C/O[C@@]2(C)Oc3c(C)c(O)c4c(O)c(c(C=NOCCBr)c(O)c4c3C2=O)NC(=O)/C(C)=C\C=C\[C@H](C)[C@H](O)[C@@H](C)[C@@H](O)[C@@H](C)[C@H](OC(C)=O)[C@@H]1C [Example 10, 3-(2-bromethyloximinomethyl)-rifamycin SV]		> 100000	
CO[C@H]1/C=C/O[C@@]2(C)Oc3c(C)c(O)c4c(O)c(c(C=NO)c(O)c4c3C2=O)NC(=O)/C(C)=C\C=C\[C@H](C)[C@H](O)[C@@H](C)[C@@H](O)[C@@H](C)[C@H](OC(C)=O)[C@@H]1C [Example 7, 3-formylrifamycin SV oxime]			Solubility soluble form (physchem): over 100 mg/ml
CO[C@H]1/C=C/O[C@@]2(C)Oc3c(C)c(O)c4c(O)c(c(/C=N/N5CCN(C)CC5)c(O)c4c3C2=O)NC(=O)/C(C)=C\C=C\[C@H](C)[C@H](O)[C@@H](C)[C@@H](O)[C@@H](C)[C@H](OC(C)=O)[C@@H]1C [rifampicin]			unsuccessful therapeutic treatments caused by hepatobiliar alterations [1]: over 10%

Second part, led by results:

solubility (physchem; Solubility as such) [µg/mL]	solubility (physchem; Solubility soluble form) [µg/mL]	SMILES	other results
270 (≈ 0.297 mM)		CO[C@H]1/C=C/O[C@@]2(C)Oc3c(C)c(O)c4c(O)c(c(C=NNc5ccc(-c6ccc(C)cc6)nn5)c(O)c4c3C2=O)NC(=O)/C(C)=C\C=C\[C@H](C)[C@H](O)[C@@H](C)[C@@H](O)[C@@H](C)[C@H](OC(C)=O)[C@@H]1C [3-[3'-(p-tolyl)-pyridazinyl-6'-hydrazonomethyl]-rifamycin SV, reference compound]	
	168000 (≈ 199 mM)	CO[C@H]1/C=C/O[C@@]2(C)Oc3c(C)c(O)c4c(O)c(c(C=NNC(=O)c5ccncc5)c(O)c4c3C2=O)NC(=O)/C(C)=C\C=C\[C@H](C)[C@H](O)[C@@H](C)[C@@H](O)[C@@H](C)[C@H](OC(C)=O)[C@@H]1C [Example 13, 3-(isonicotinoylhydrazonomethyl)-rifamycin SV]	
	540 (≈ 0.586 mM)	CO[C@H]1/C=C/O[C@@]2(C)Oc3c(C)c(O)c4c(O)c(c(C=NNc5ccc(-c6ccc(C)c(C)c6)nn5)c(O)c4c3C2=O)NC(=O)/C(C)=C\C=C\[C@H](C)[C@H](O)[C@@H](C)[C@@H](O)[C@@H](C)[C@H](OC(C)=O)[C@@H]1C [Example 12, 3-[3'-(3",4"-dimethylphenyl)-pyridazinyl-6'-hydrazonomethyl]-rifamycin SV]	
	540 (≈ 0.595 mM)	CO[C@H]1/C=C/O[C@@]2(C)Oc3c(C)c(O)c4c(O)c(c(C=NNc5ccc(-c6ccc(C)cc6)nn5)c(O)c4c3C2=O)NC(=O)/C(C)=C\C=C\[C@H](C)[C@H](O)[C@@H](C)[C@@H](O)[C@@H](C)[C@H](OC(C)=O)[C@@H]1C [Example 11, 3-[3'-(p-tolyl)-pyridazinyl-6'-hydrazonomethyl]-rifamycin SV]	
< 100		CO[C@H]1/C=C/O[C@@]2(C)Oc3c(C)c(O)c4c(O)c(c(C=NNc5ccc(-c6ccc(C)c(C)c6)nn5)c(O)c4c3C2=O)NC(=O)/C(C)=C\C=C\[C@H](C)[C@H](O)[C@@H](C)[C@@H](O)[C@@H](C)[C@H](OC(C)=O)[C@@H]1C [3-[3'-(3",4"-dimethylphenyl)-pyridazinyl-6'-hydrazonomethyl]-rifamycin SV, reference compound]	
920 (≈ 1.09 mM)		CO[C@H]1/C=C/O[C@@]2(C)Oc3c(C)c(O)c4c(O)c(c(C=NNC(=O)c5ccncc5)c(O)c4c3C2=O)NC(=O)/C(C)=C\C=C\[C@H](C)[C@H](O)[C@@H](C)[C@@H](O)[C@@H](C)[C@H](OC(C)=O)[C@@H]1C [3-(isonicotinoylhydrazonomethyl)-rifamycin SV, reference compound]	
